Assay [1] has as its system HMPV clinical isolate A2 strain TN 94-49. Put plainly: HMPV antiviral assay, Method 1 (LLC-MK2 cells, ATP-Lite). The class given is cell-based. The settings on record: human metapneumovirus, hMPV A2 TN/94-49, LLC-MK2 cells. In short, it runs like this:
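EC50 derived by four-parameter logistic fit of percent cell health, measured as ATP-Lite luminescence after 7 days at 37° C, 5% CO2. Compounds tested as 10-point 2.5-fold dilutions starting at 2 μM against TN 94-49 virus (MOI 0.005) in LLC-MK2 cells seeded at 5,000/well, infection medium containing 2 μg/mL TPCK-trypsin, serum-free.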

Assay [2] shares this test system. In words: HMPV antiviral assay, Method 2 (LLC-MK2 cells with CP-100-356, ATP-Lite). To be noted: human metapneumovirus; hMPV A2 TN/94-49, LLC-MK2 cells with CP-100-356, Method 2. Type of assay: cell-based. In short, it runs like this: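 EC50 comes from a four-parameter fit of percent cell viability (ATP-Lite, normalized to virus-only and cell-only wells) after 7 days at 37 °C. Infection used HMPV A2 TN 94-49 at MOI 0.16 in LLC-MK2 cells, with 2 μM P-gp inhibitor CP-100-356 and 2 μg/mL TPCK-trypsin final; dose range 200 nM top, 2.5-fold, 10 points, duplicate.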

Some results are limits rather than exact numbers.

As to `C[C@]1(C(N)=O)COc2c1cc([C@@](O)(CNC(=O)c1cc(OC3CC3)c3nc(C4CC4)sc3c1)C1CC1)nc2-c1cc(Cl)c(F)cc1F` [Example 3], the figures for the concentration for a half-maximal effect (EC50) in assay [1] and in assay [2] were below 500 nM and below 200 nM, respectively.
The like results for `C[C@]1(C(N)=O)COc2c1cc([C@@](O)(CNC(=O)c1cc(OC3CC3)n3nc(C4CC4)cc3c1)C1CC1)nc2-c1cc(Cl)c(F)cc1F` [Example 4] were, in that order, below 500 nM and below 200 nM.
For `C[C@]1(C(N)=O)COc2c1cc([C@@](O)(CNC(=O)c1cc(OC3CC3)c3nn(C4(F)CC4)cc3c1)C1CC1)nc2-c1cc(Cl)c(F)cc1F` [Example 5], the results for the EC50 in assay [1] and in assay [2] were below 500 nM and below 200 nM, respectively.
For the molecule `COc1cc(C(=O)NC[C@@](O)(c2ccc(F)cc2)c2cc3c(c(-c4cc(Cl)c(F)cc4F)n2)OC[C@]3(C)C(N)=O)cc2cn(C3CC3)nc12` [Example 12], the EC50 (in general, the concentration that produces a half-maximal response) in assay [1] was below 500 nM; in assay [2], below 200 nM.
The like results for `COc1cc(C(=O)NC[C@@](O)(c2ccc(F)cc2)c2cc3c(c(-c4cc(Cl)c(F)cc4F)n2)OC[C@]3(C)C(N)=O)cc2cn(C3(F)CC3)nc12` [Example 14] were, in that order, below 500 nM and below 200 nM.
The like results for `COc1cc(C(=O)NC[C@@](O)(c2ccccc2)c2cc3c(c(-c4ccc5c(c4)OC(F)(F)O5)n2)OC[C@]3(C)C(N)=O)cc2cn(C3CC3)nc12` [Example 18] were, in that order, below 500 nM and below 200 nM.
The like results for `COc1cc(C(=O)NC[C@@](O)(c2ccccc2)c2cc3c(c(-c4ccc5c(c4)OC(F)(F)O5)n2)OC[C@]3(C)C(N)=O)cc2cn(C3(F)CC3)nc12` [Example 19] were, in that order, below 500 nM and below 200 nM.
As to `COc1cc(C(=O)NC[C@](O)(c2cc3c(c(-c4cc(F)c(F)cc4F)n2)OC[C@]3(C)C(N)=O)C2CC2)cc2cc(C)c(F)nc12` [Example 21], the EC50 in assay [1] was below 500 nM; in assay [2], below 200 nM.
The matching figures for `COc1cc(C(=O)NC[C@](O)(c2cc3c(c(-c4ccc5c(c4)OC(F)(F)O5)n2)OC[C@]3(C)C(N)=O)C2CC2)cc2cc(C)c(F)nc12` [Example 22]: below 500 nM and below 200 nM.
Turning to `C[C@]1(C(N)=O)COc2c1cc([C@@](O)(CNC(=O)c1cc(OC3CC3)c3nn(C4CC4)cc3c1)C1CC1)nc2-c1ccc(F)c(Cl)c1Cl` [Example 23], the EC50 was below 500 nM in assay [1] and below 200 nM in assay [2].
The like results for `COc1cc(C(=O)NC[C@](O)(c2cc3c(c(-c4cc(F)c(F)cc4F)n2)OC[C@]3(C)C(N)=O)C2CC(F)(F)C2)cc2cn(C(F)F)nc12` [Example 33] were, in that order, above 500 nM and below 200 nM.
Regarding `C[C@]1(C(N)=O)COc2c1cc([C@@](O)(CNC(=O)c1cc(OC3CC3)c3nn(C(F)F)cc3c1)C1CC(F)(F)C1)nc2-c1cc(F)c(F)cc1F` [Example 34], the EC50 in assay [1] is below 500 nM; in assay [2], below 200 nM.
For the molecule `C[C@]1(C(N)=O)COc2c1cc([C@@](O)(CNC(=O)c1cc(OCCO)c3nn(C4CC4)cc3c1)C1CC1)nc2-c1ccc(F)c(Cl)c1F` [Example 37], the EC50 in assay [1] is above 500 nM; in assay [2] it was below 200 nM.
As to `[2H]c1nc2c(OC(F)F)cc(C(=O)NC[C@@](O)(c3ccccc3)c3cc4c(c(-c5cc(Cl)c(F)cc5F)n3)OC[C@]4(C)C(N)=O)cc2cc1C([2H])([2H])[2H]` [Example 217], in assay [1], the EC50 was below 500 nM.
On to `COc1cc(C(=O)NC[C@@](O)(c2ccccc2)c2cc3c(c(-c4ccc5c(c4Cl)OC(F)(F)O5)n2)OC[C@]3(C)C(N)=O)cc2cn(C3CC3)nc12` [Example 251], for which, in assay [1], the EC50 was below 500 nM.
On the same count and under the same terms, with `C[C@]1(C(N)=O)COc2c1cc([C@@](O)(CNC(=O)c1cc(OC3CC3)c3nn(C4CC4)cc3c1)c1ccccc1)nc2-c1ccc2c(c1Cl)OC(F)(F)O2` [Example 252] the figure was below 500 nM; with `COc1cc(C(=O)NC[C@@](O)(c2ccccc2)c2cc3c(c(-c4ccc5c(c4Cl)OC(F)(F)O5)n2)OC[C@]3(C)C(N)=O)cc2cn(C(F)F)nc12` [Example 253], below 500 nM; with `COc1cc(C(=O)NC[C@@](O)(c2ccccc2)c2cc3c(c(-c4ccc5c(c4Cl)OC(F)(F)O5)n2)OC[C@]3(C)C(N)=O)cc2cc(C3CC3)nn12` [Example 254], below 500 nM.
Turning to `COc1cc(C(=O)NC[C@@](O)(c2ccccc2)c2cc3c(c(-c4ccc5c(c4Cl)OC(F)(F)O5)n2)OC[C@]3(C)C(N)=O)cc2cn(C3(F)CC3)nc12` [Example 255], the concentration giving a half-maximal response (EC50) in assay [1] was below 500 nM.
Still for that read-out and setting: with `C[C@]1(C(N)=O)COc2c1cc([C@@](O)(CNC(=O)c1ccc3nc(N)sc3c1)c1ccccc1)nc2-c1ccc2c(c1Cl)OC(F)(F)O2` [Example 256] the figure was below 500 nM; with `COc1cc(C(=O)NC[C@@](O)(c2ccccc2)c2cc3c(c(-c4ccc(F)c(Cl)c4Cl)n2)OC[C@]3(C)C(N)=O)cc2cn(C3CC3)nc12` [Example 257], below 500 nM; with `COc1cc(C(=O)NC[C@@](O)(c2ccccc2)c2cc3c(c(-c4cccc(Cl)c4Cl)n2)OC[C@]3(C)C(N)=O)cc2cn(C(F)F)nc12` [Example 261], below 500 nM.
On the same count and under the same terms, with `Cc1nc2ccc(C(=O)NC[C@@](O)(c3ccccc3)c3cc4c(c(-c5ccc(F)c(Cl)c5Cl)n3)OC[C@]4(C)C(N)=O)cc2o1` [Example 267] the figure was below 500 nM; with `[2H]C([2H])([2H])c1nc2c(OC)cc(C(=O)NC[C@@](O)(c3cccc(F)c3)c3cc4c(c(-c5ccc(F)c(Cl)c5Cl)n3)OC[C@]4(C)C(N)=O)cc2s1` [Example 272], below 500 nM; with `[2H]C([2H])([2H])c1nc2c(OC)cc(C(=O)NC[C@@](O)(c3ccccc3)c3cc4c(c(-c5ccc(F)c(Cl)c5Cl)n3)OC[C@]4(C)C(N)=O)cc2s1` [Example 273], below 500 nM.
Still for that read-out and setting: with `COc1cc(C(=O)NC[C@@](O)(c2cccc(F)c2)c2cc3c(c(-c4ccc5c(c4Cl)OC(F)(F)O5)n2)OC[C@]3(C)C(N)=O)cc2cn(C3CC3)nc12` [Example 274] the figure was below 500 nM; with `COc1cc(C(=O)NC[C@@](O)(c2cccc(F)c2)c2cc3c(c(-c4ccc(F)c(Cl)c4Cl)n2)OC[C@]3(C)C(N)=O)cc2oc(C)nc12` [Example 279], below 500 nM; with `Cc1nc2ccc(C(=O)NC[C@@](O)(c3cccc(F)c3)c3cc4c(c(-c5ccc6c(c5Cl)OC(F)(F)O6)n3)OC[C@]4(C)C(N)=O)cc2o1` [Example 284], below 500 nM.
Regarding `COc1cc(C(=O)NC[C@@](O)(c2ccccc2)c2cc3c(c(-c4cc(C(F)F)c(F)cc4F)n2)OC[C@]3(C)C(N)=O)cc2cn(C3CC3)nc12` [Example 288], the EC50 in assay [1] was below 500 nM.
In the case of `COc1cc(C(=O)NC[C@@](O)(c2cc3c(c(-c4cc(Cl)c(F)cc4F)n2)OC[C@]3(C)C(N)=O)c2cc(C)cs2)cc2cn(C3CC3)nc12` [Example 466], the EC50 in assay [1] is above 500 nM.
Same read-out and setting: with `COc1cc(C(=O)NC[C@](O)(c2cc3c(c(-c4cc(Cl)c(F)cc4F)n2)OC[C@]3(C)C(N)=O)c2cc(C)cs2)cc2cn(C3CC3)nc12` [Example 467] the figure was below 500 nM; with `COc1cc(C(=O)NCC(O)(c2cc3c(c(-c4cc(Cl)c(F)cc4F)n2)OC[C@]3(C)C(N)=O)c2cc3ccccc3s2)cc2cn(C3CC3)nc12` (stereo partly shown) [Example 469], above 500 nM.
Consider `COc1cc(C(=O)NCC(O)(c2csc(Cl)c2)c2cc3c(c(-c4cc(Cl)c(F)cc4F)n2)OC[C@]3(C)C(N)=O)cc2cn(C3CC3)nc12` (stereo partly shown) [Example 471], for which the EC50 in assay [1] was below 500 nM.
